Data set [1] concerns systolic blood pressure. Put plainly: systolic blood pressure (SBP) by tail plethysmography, rats on 30% fat / sucrose diet. It counts as in vivo, Sprague-Dawley Rats. The note with it: end of eight weeks. The source says: (§1) A known effect of ACE inhibitors is a reduction in elevated systolic blood pressure. To test this, the following protocol was employed: Sprague-Dawley Rats (SD), approximately 8 weeks of age were obtained. Six groups of eight male SD received the same standard rat chow manufactured to specifications. The special diets derived 30% of calories from fats (one half from lard and one half from corn oil), 50% from carbohydrates, and 20% from proteins. Twenty percent of dietary calories was derived from sucrose and the preponderance of the remaining carbohydrate calories was derived from dextrin. During weekdays (M-F), each group was gavaged twice daily with a solution containing a commercial source of potassium hydroxycitrate (KHCA), a commercial source of potassium-calcium hydroxycitrate (KCaHCA), or a pre-commercial non-salt source of potassium-magnesium hydroxycitrate (KMgHCA, listed as KMgHCA L-Low, M-Intermediate or H-High depending upon the dose). Over the weekends (S-S), a similar quantity of the weekday daily dose was added to twenty grams of food, that is, an amount of food estimated to be close to the daily intake of the animals. At initiation of study and four weeks, and eight weeks later, bloods were drawn from all SD for routine blood chemistries. Body weight (BW) was measured weekly and systolic blood pressure (SBP) was measured every two weeks.
The HCA dosages in the arms varied. The dosage used in the KHCA arm was extrapolated from the recommended 1,500 mg HCA per day for humans consuming a normal diet (i.e., ≧30% calories derived from fats) advocated by a commercial seller of KHCA and claimed to have produced acceptable clinical results. The approximate equivalent for the rat model is 35.4 mg HCA per day, which we increased to 38.4 mg HCA per day for convenience in employing a 48% HCA potassium salt and to remain safely on the high side in practice. For the sake of comparison, a commercial KCaHCA salt (60% HCA) was chosen and delivered at an HCA dosage level of 48 mg per day, which slightly exceeded the lowest dosage of HCA found to be efficacious for inhibition of weight gain in rats in the early pharmaceutical trials (45.4 mg/day) using pure trisodium hydroxycitrate and a very low fat diet. The design thus utilized a realistic diet with rough equivalents of the HCA dosages claimed to be effective in both the human and rat models.
The experimental KMgHCA dosings varied considerably from that of the other two salts. […] As a result, the recalculated HCA doses for the experimental compound were a low dose (KMgHCA L) of 14 mg, an intermediate dose (KMgHCA M) of 28 mg and a high dose (KMgHCA H) of 84 mg per day. The difficulty in calculating the HCA content in this case is not unique inasmuch as there is as of yet no universally accepted method for calculating the HCA content of the various salts. Again, preparations yielded the equivalent of 48 mg HCA per day from KCaHCA and 38.4 mg HCA per day from KHCA.
Systolic Blood Pressure (SBP): SBP was estimated by tail plethysmography in unanesthetized rats after a brief warming period. Readings were taken approximately one minute apart. To be accepted, SBP measurements had to be virtually stable for a minimum of three consecutive readings.
(§2) Statistical Analyses: Results are presented as mean±SEM. Many statistics were performed by one-way analysis of variance (ANOVA). SBP and BW were examined by two-way analyses of variance (one factor being dietary group and the second factor being time of examination). Where a significant effect of diet was detected by ANOVA (p<0.05), the Dunnett t test was used to establish which differences between means reached statistical significance (p<0.05). If a Student's t test was employed, this is noted.

The test system of data set [2] is C-reactive protein. Put plainly: serum C-reactive protein, rats on 30% fat / simple sugar diet. The data set is classed as in vivo. Set-up: key to CRP Modulation: ** = significant. The note with it: salt 76 mg/day; for Δ OD units after 4 wks: serum CRP, 1 unit equals 50 picograms/mL. The source says:
(§3) To test the properties of HCA in various forms under conditions similar to those found in human clinical trials, the inventor arranged for rats to be fed a diet in which 30% of the calories were obtained from fat under standard conditions, with a further approximately 20% of the calories being supplied as simple sugars. Such a dietary combination of fat and simple sugars is noted as promoting a variety of metabolic imbalances and dysfunctions. The rats were intubated twice daily with one of five HCA salts or placebo. On weekends, the HCA was added to the food at an approprate dosage. The amount of HCA in each arm of 8 animals was based on the minimum dosage which had been found effective in the form of the pure trisodium salt of HCA in tests by Hoffmann-La Roche in animals ingesting a 70% glucose diet, i.e., 0.33 mmoles/kg body weight HCA given twice per day. The HCA salts used were these: KCaHCA=a mixed potassium and calcium or double metal HCA salt commercially marketed as being entirely water soluble and of relatively high purity; KHCA=a relatively clean commercial potassium salt of HCA with a good mineral ligand attachment supplying 4467 mg potassium/100 grams of material; KMgHCA=three different dosage levels of an experimental potassium and magnesium salt with special characteristics, but suspected of being relatively unstable when exposed to stomach acid. The KCaHCA and KHCA salts were 60% HCA delivered at the rate of approximately 76 mg/day. The KMgHCA salts were delivered at the rate of 76 mg/day (r), 38 mg/day (l) and 228 mg/day (h), but due to initial miscalculations of the water of crystallization, this salt was only 45% HCA rather than 60%. The proper dosage for the KMgHCA(r) should have been 100 mg/day; the half dose (I) should have been 50 mg/day, and the triple dose (h) should have been 300 mg/day to match the commercial salts.
Tests were performed for C-reactive protein. Data was obtained for the animals at start and then at week 4 based on serum. Optical Density (OD) readings in the test kit used were 1 unit equals 50 picograms/mL. The delta changes over the 4 weeks for each arm vs control are shown.

Data set [3] deals with insulin. As to the kind of experiment: circulating insulin concentrations. It counts as in vivo, Sprague-Dawley Rats.
Text: as §1, §2

The subject of data set [4] is systolic blood pressure. As to the kind of experiment: earlier study of SBP not described here. The data set is classed as in vivo. As to conditions: 120 mg HCA per day.
A short description of data set [5]: body weight in the C-reactive protein study. The data set is classed as in vivo, rats. As to conditions: by week 6; salt 76 mg/day.
Text: as §3, with “The KCaHCA and KHCA salts were 60% HCA delivered at the rate of approximately 76 mg/day. The KMgHCA salts were delivered at the rate of 76 mg/day (r), 38 mg/day (l) and 228 mg/day (h), but due to initial miscalculations of the water of crystallization, this salt was only 45% HCA rather than 60%. The proper dosage for the KMgHCA(r) should have been 100 mg/day; the half dose (I) should have been 50 mg/day, and the triple dose (h) should have been 300 mg/day to match the commercial salts.” left out

The test system of data set [6] is ACE system. As to the kind of experiment: response of SBP to losartan challenge. It counts as in vivo, Spontaneously hypertensive rats (SHR). The note with it: at 6 hours; control SHR without HCA. From the text:
Many factors can positively influence blood pressure, e.g., diuretics, antioxidants, regulators of sympathetic/parasympathetic tone, compounds that improve insulin sensitivity and so forth. Therefore, losartan, an angiotensin-2 receptor blocker, was utilized to discover whether the ACE system was involved in the results discussed in Example 1.
Spontaneously hypertensive rats (SHR) were placed on a diet composed of regular rat chow (60% w/w) and table sugar (40% w/w). This diet reliably elevates blood pressure in this animal model. One group received 100 mg HCA per day in the form of a new potassium-magnesium hydroxycitrate (different from that used in Example 1) via an added 5 g HCA per kg of food mix. Systolic blood pressure and body weight were tested as in Example 1 on a weekly basis.
When losartan was injected, the SBP of both groups decreased. At 6 hours, the SBP were essentially the same. […] Thus, HCA appears to decrease angiotensin-2 in rats and to lower elevated SBP. Although insulin regulation likely is a factor in the blood pressure modulating effect of HCA, this evidence argues that inhibition of ACE is also important. […]

Data set [7] is described as follows: pilot open clinical weight loss trial with extremely obese patients. It counts as in vivo, human. The source says:
A multi-week pilot open clinical weight loss trial with extremely obese patients was planned to gauge the effects of a pouch delivery form of a potassium salt of (−)-hydroxycitrate under the normal circumstances faced in clinical practice with this patient population. Fourteen patients were enrolled, three of whom were diabetics on medications and several others who were suspected of suffering from insulin resistance. The patients ingested 3-4 grams of HCA per day in two divided doses. Aside from being informed that they must eat a carbohydrate-containing meal within one hour of taking the HCA and that they should avoid eating late in the day, they were not instructed to follow any special diet or exercise plan outside their normal habits and no caloric restriction was imposed. This particular form of potassium (−)-hydroxycitrate delivery typically was mixed into water or juice and consumed at mid-morning and mid-afternoon. The delivery was a water-soluble immediate release form. […] A number of patients continued on the program for 6 weeks. However, comparative data was good for only 3 weeks because two of the diagnosed diabetics experienced hypoglycemic reactions. Several other patients experienced good appetite suppression, yet also complained off episodic tiredness at the beginning of the program, a sign of low blood sugar. Two patients subsequently were placed on phentermine. […] The average weight loss over the 3 week period for these patients was approximately 3 pounds per person per week. […] At therapeutically effective dosages, HCA probably should be used with diabetic populations only under a physician's care.

For data set [8] the following is noted: rats; diet of 70% glucose and 1% fat; cited from earlier work.

As for `O=C([O-])CC(O)(C(=O)[O-])C(O)C(=O)[O-].[Ca+2].[K+]` (stereo not drawn) [KCaHCA, potassium-calcium hydroxycitrate], in data set [1] (48 mg HCA per day), the “SBP compared to control” value is reported as “significant decreases in SBP compared to control”. For the same compound, the “change in CRP compared with control, significance” value in data set [2] (4 wks) is on record as “failed to yield significant results”. Moreover, the “Δ OD units after 4 wks” value in data set [2] came out at 56 OD units. Besides, in data set [3] (48 mg HCA per day), the “trend of circulating insulin” value is recorded as “did not show a trend toward lower circulating insulin”. Moreover, in data set [4], the SBP entry is “decrease in SBP”. The “body weight, trend difference from control” value in data set [5] is given as “greatest trend differences”.
With `CCCCc1nc(Cl)c(CO)n1Cc1ccc(-c2ccccc2-c2nn[nH]n2)cc1` [losartan, reference compound], the “decrease in SBP after losartan injection” value in data set [6] is on record as −50±6.1.
For `O=C([O-])CC(O)(C(=O)[O-])C(O)C(=O)[O-].[K+].[K+].[K+]` (stereo not drawn) [KHCA, potassium hydroxycitrate], the “SBP compared to control” value in data set [1] (38.4 mg HCA per day) is given as “significant decreases in SBP compared to control”. Besides, the “CRP Modulation” value in data set [2] (4 wks) is listed as “**”. In data set [2], the “Δ OD units after 4 wks” value is recorded as −155 OD units. Besides, in data set [3] (38.4 mg HCA per day), the “insulin, control versus arm alone, Student's t test” value is “showed significance”. For the same compound, the “average insulin concentrations vs control” value in data set [3] (38.4 mg HCA per day, not significant using ANOVA) is recorded as “lower”. Besides, the “body weight, trend difference from control” value in data set [5] is “greatest trend differences”.
With `O=C([O-])CC(O)(C(=O)[O-])C(O)C(=O)[O-].[K+].[K+].[K+]` (stereo not drawn) [potassium (−)-hydroxycitrate], the average weight loss result in data set [7] (3-4 grams of HCA per day in two divided doses, over the 3 week period) is “approximately 3 pounds per person per week”. The tolerability result in data set [7] (apart from inconvenience and poor taste) is listed as “no other issues of tolerability”. The hypoglycemic effect result in data set [7] (immediate release format, diabetics, 3-4 grams of HCA per day) is “strong hypoglycemic effect in diabetics”. This compound also registered a weight loss in data set [7] (one patient, over 10 weeks) of 32 pounds.
For `O=C([O-])CC(O)(C(=O)[O-])C(O)C(=O)[O-].[Na+].[Na+].[Na+]` (stereo not drawn) [trisodium hydroxycitrate], the “lowest dose shown to be efficacious in reducing weight gain” value in data set [8] is on record as 0.33 mmol/kg twice a day.

The values above are taken from patent publication US20060025483A1, “(-)-Hydroxycitric acid for protection against soft tissue and arterial calcification” (priority 2004, published 2006).
